This passage reports relative viability results from the supplement of paper PMC10307832.

Common to all, as to assay: relative viability (nuclei count vs DMSO), 5 days (fraction); higher = more cells survive
Compound in the assay “RO-3306 + Alpelisib”: C1=CC2=C(C=CC(=C2)C=C3C(=O)NC(=NCC4=CC=CS4)S3)N=C1 [RO-3306] + Cc1nc(NC(=O)N2CCC[C@H]2C(N)=O)sc1-c1ccnc(C(C)(C)C(F)(F)F)c1 [Alpelisib] (partner 2 µM)
The gist of the method: (§1)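 The day after seeding in 1536-well plates, lung cancer cell lines were treated by pin tool with a single drug, or with a fixed anchor-drug dose together with five library-drug doses (not always all listed) in √10 steps. After 5 days, a combined fix-and-stain solution (final 0.05% Triton X-100, 1% formaldehyde, 1 ug/ml Hoechst) was added. Nuclei counted on 4× images gave relative viability as treated counts over vehicle counts, reported as the median of duplicate plates.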

Compound in the assay “RO-3306 + Linsitinib”: C1=CC2=C(C=CC(=C2)C=C3C(=O)NC(=NCC4=CC=CS4)S3)N=C1 [RO-3306] + C[C@]1(O)C[C@@H](c2nc(-c3ccc4ccc(-c5ccccc5)nc4c3)c3c(N)nccn32)C1 [Linsitinib] (partner 1 µM)
The gist of the method:
as §1

Compound in assay [1]: O=S(=O)(c1ccccc1)N(CC(F)(F)F)c1ccc(C(O)(C(F)(F)F)C(F)(F)F)cc1 + Nc1nc2[nH]cc(CCc3ccc(C(=O)N[C@@H](CCC(=O)O)C(=O)O)cc3)c2c(=O)[nH]1 [Pemetrexed] (partner 0.2 µM)
The gist of the method: as §1

Compound in assay [2]: O=S(=O)(c1ccccc1)N(CC(F)(F)F)c1ccc(C(O)(C(F)(F)F)C(F)(F)F)cc1 + CC(=O)Nc1cccc(-n2c(=O)n(C3CC3)c(=O)c3c(Nc4ccc(I)cc4F)n(C)c(=O)c(C)c32)c1 [Trametinib] (partner 0.02 µM)
The gist of the method:
as §1

As for NCI-H596, the relative viability was determined as 0.443 with RO-3306 + Alpelisib (first compound 0.01 µM); 0.48 in the assay with RO-3306 + Alpelisib (first compound 0.03162 µM); 0.49 in the assay with RO-3306 + Alpelisib (first compound 0.1 µM); 0.511 in the assay with RO-3306 + Alpelisib (first compound 0.3162 µM); 0.432 with RO-3306 + Alpelisib (first compound 1 µM); 0.954 with RO-3306 + Linsitinib (first compound 0.01 µM). In addition, the relative viability with RO-3306 + Linsitinib (first compound 0.03162 µM) stood at 0.903; in the assay with RO-3306 + Linsitinib (first compound 0.1 µM), 1.15; in the assay with RO-3306 + Linsitinib (first compound 0.3162 µM) it was 1.04; with RO-3306 + Linsitinib (first compound 1 µM), 1.04; in assay [1] (first compound 0.8 µM) it was 0.549; in assay [1] (first compound 2.53 µM), 0.528. Also, the relative viability stood at 0.562 in assay [1] (first compound 8 µM), 0.746 in assay [2] (first compound 0.8 µM), 0.794 in assay [2] (first compound 2.53 µM) and 0.724 in assay [2] (first compound 8 µM).
Take SW 900: the relative viability in assay [1] (first compound 0.8 µM) is 0.581; in assay [1] (first compound 2.53 µM), 0.478; in assay [1] (first compound 8 µM), 0.538; in assay [2] (first compound 0.8 µM), 0.787; in assay [2] (first compound 2.53 µM), 0.828; in assay [2] (first compound 8 µM), 0.607.
As to NCI-H1650, the relative viability is 0.332 in assay [1] (first compound 0.8 µM); 0.355 in assay [1] (first compound 2.53 µM); 0.397 in assay [1] (first compound 8 µM); 0.513 in assay [2] (first compound 0.8 µM); 0.645 in assay [2] (first compound 2.53 µM); 0.53 in assay [2] (first compound 8 µM).
As for EKVX, the relative viability with RO-3306 + Alpelisib (first compound 0.01 µM) was 0.958; in the assay with RO-3306 + Alpelisib (first compound 0.03162 µM), 0.833; with RO-3306 + Alpelisib (first compound 0.1 µM) it was 0.841; with RO-3306 + Alpelisib (first compound 0.3162 µM) it was 1.02; with RO-3306 + Alpelisib (first compound 1 µM), 0.83; in the assay with RO-3306 + Linsitinib (first compound 0.01 µM) it was 1.13. Moreover, the relative viability with RO-3306 + Linsitinib (first compound 0.03162 µM) was 0.678; with RO-3306 + Linsitinib (first compound 0.1 µM), 1.07; with RO-3306 + Linsitinib (first compound 0.3162 µM), 1.21; in the assay with RO-3306 + Linsitinib (first compound 1 µM) it was 0.78; in assay [1] (first compound 0.8 µM), 0.388; in assay [1] (first compound 2.53 µM), 0.362. Further, the relative viability in assay [1] (first compound 8 µM) is 0.292; in assay [2] (first compound 0.8 µM) it was 0.3; in assay [2] (first compound 2.53 µM), 0.272; in assay [2] (first compound 8 µM), 0.324.
For the cell line NCI-H2342, the relative viability in assay [1] (first compound 0.8 µM) amounted to 0.894; in assay [1] (first compound 2.53 µM), 0.841; in assay [1] (first compound 8 µM), 0.956; in assay [2] (first compound 0.8 µM), 0.917; in assay [2] (first compound 2.53 µM), 0.854; in assay [2] (first compound 8 µM), 0.861.
As to NCI-H1975, the relative viability with RO-3306 + Alpelisib (first compound 0.01 µM) worked out at 0.882; in the assay with RO-3306 + Alpelisib (first compound 0.03162 µM), 0.507; with RO-3306 + Alpelisib (first compound 0.1 µM) it was 0.615; in the assay with RO-3306 + Alpelisib (first compound 0.3162 µM), 0.675; with RO-3306 + Alpelisib (first compound 1 µM) it was 0.67; in the assay with RO-3306 + Linsitinib (first compound 0.01 µM) it was 1.11. Also, the relative viability with RO-3306 + Linsitinib (first compound 0.03162 µM) worked out at 0.981; in the assay with RO-3306 + Linsitinib (first compound 0.1 µM), 1.01; with RO-3306 + Linsitinib (first compound 0.3162 µM), 0.891; in the assay with RO-3306 + Linsitinib (first compound 1 µM), 0.913; in assay [1] (first compound 0.8 µM), 0.358; in assay [1] (first compound 2.53 µM), 0.293. For the same cell line, the relative viability in assay [1] (first compound 8 µM) was 0.3; in assay [2] (first compound 0.8 µM) it was 0.341; in assay [2] (first compound 2.53 µM) it was 0.338; in assay [2] (first compound 8 µM), 0.316.
Turning to HCC-78, the relative viability with RO-3306 + Alpelisib (first compound 0.01 µM) worked out at 0.326; with RO-3306 + Alpelisib (first compound 0.03162 µM) it was 0.279; with RO-3306 + Alpelisib (first compound 0.1 µM), 0.359; with RO-3306 + Alpelisib (first compound 0.3162 µM) it was 0.376; with RO-3306 + Alpelisib (first compound 1 µM), 0.339; in the assay with RO-3306 + Linsitinib (first compound 0.01 µM) it was 0.481. Besides, the relative viability in the assay with RO-3306 + Linsitinib (first compound 0.03162 µM) was determined as 0.43; in the assay with RO-3306 + Linsitinib (first compound 0.1 µM) it was 0.447; with RO-3306 + Linsitinib (first compound 0.3162 µM), 0.734; with RO-3306 + Linsitinib (first compound 1 µM), 0.47; in assay [1] (first compound 0.8 µM), 1.01; in assay [1] (first compound 2.53 µM) it was 0.915. The relative viability is 0.967 in assay [1] (first compound 8 µM), 0.666 in assay [2] (first compound 0.8 µM), 0.575 in assay [2] (first compound 2.53 µM) and 0.689 in assay [2] (first compound 8 µM).
